What was measured:
Assay type in all cases: functional, cell-based; call rule not given here
[1] = tested on: HOP-62; test: Antiproliferative activity against human HOP62 cell line
[2] = tested on: HT-29; test: Antiproliferative activity against human HT29 cell line
[3] = tested on: OVCAR-5; test: Antiproliferative activity against human OVCAR5 cell line
[4] = tested on: SW-60; test: Antiproliferative activity against […]
[5] = tested on: PC-3; test: Antiproliferative activity against human PC3 cell line
[6] = tested on: A549; test: Antiproliferative activity against human A549 cell line
[7] = Homo sapiens, HT-29, read-out: IC50
[8] = Homo sapiens, OVCAR-5, read-out: IC50
[9] = Homo sapiens, PC-3, read-out: IC50
[10] = Homo sapiens, HOP-62, read-out: IC50
[11] = Homo sapiens, SW-60, read-out: IC50
[12] = Homo sapiens, A549, read-out: IC50

Structure (SMILES) | IC50 [2, 7] | IC50 [3, 8] | IC50 ([4]; sw-60) | IC50 [5, 9] | IC50 ([6]; a549) | IC50 ([3]; ovcar-5) | IC50 ([5]; pc-3) | IC50 [4, 11] | IC50 [6, 12] | IC50 ([2]; ht-29) | IC50 ([1]; hop-62) | IC50 [1, 10]
COC(=O)C[C@H]1[C@]2(C)C3=C(C)[C@H](c4ccoc4)C[C@H]3O[C@@H]2[C@H](O)[C@@H]2[C@]1(C)C(=O)C=C[C@@]2(C)C(=O)N1CCOCC1 | 3.38 µM | 2.11 µM | – | 2.26 µM | Not Active | – | – | 5.72 µM | – | – | Not Active | –
COC(=O)C[C@H]1[C@]2(C)C3=C(C)[C@H](c4ccoc4)C[C@H]3O[C@@H]2[C@H](O)[C@@H]2[C@]1(C)C(=O)C=C[C@@]2(C)C(=O)NCC(C)C | 0.05 µM | 1.53 µM | – | 7.43 µM | Not Active | – | – | 0.08 µM | – | – | – | 4.83 µM
COC(=O)C[C@H]1[C@]2(C)C3=C(C)[C@H](c4ccoc4)C[C@H]3O[C@@H]2[C@H](O)[C@@H]2[C@]1(C)C(=O)C=C[C@@]2(C)C(=O)NCc1ccc(C(F)(F)F)cc1 | 17.5 µM | – | – | 32.3 µM | – | Not Active | – | 26.4 µM | 37.3 µM | – | – | 14.1 µM
COC(=O)C[C@H]1[C@]2(C)C3=C(C)[C@H](c4ccoc4)C[C@H]3O[C@@H]2[C@@H]2OC(=O)[C@]3(C)C=CC(=O)[C@@]1(C)[C@@H]23 [NIMBOLIDE] | 6.94 µM | 4.17 µM | – | 4.59 µM | – | – | – | 8.25 µM | 15.6 µM | – | – | 10.4 µM
COC(=O)C[C@H]1[C@]2(C)C3=C(C)[C@H](c4ccoc4)C[C@H]3O[C@@H]2[C@H](O)[C@@H]2[C@]1(C)C(=O)C=C[C@@]2(C)C(=O)NCc1ccccc1 | 43.2 µM | 82.4 µM | Not Active | – | Not Active | – | Not Active | – | – | – | – | 26.3 µM
COC(=O)C[C@H]1[C@]2(C)C3=C(C)[C@H](c4ccoc4)C[C@H]3O[C@@H]2[C@H](O)[C@@H]2[C@]1(C)C(=O)C=C[C@@]2(C)C(=O)N1CCCCC1 | 91.5 µM | 62.3 µM | Not Active | 48.2 µM | – | – | – | – | 78.3 µM | – | Not Active | –
COC(=O)C[C@H]1[C@]2(C)C3=C(C)[C@H](c4ccoc4)C[C@H]3O[C@@H]2[C@H](O)[C@@H]2[C@]1(C)C(=O)C=C[C@@]2(C)C(=O)NCc1ccc(F)cc1 | 78.1 µM | 84.1 µM | Not Active | – | Not Active | – | Not Active | – | – | – | Not Active | –

Continued, in another order:

IC50 [2, 7] | IC50 [3, 8] | IC50 ([4]; sw-60) | IC50 [5, 9] | IC50 ([6]; a549) | IC50 ([3]; ovcar-5) | IC50 ([5]; pc-3) | IC50 [4, 11] | IC50 [6, 12] | IC50 ([2]; ht-29) | Structure (SMILES) | IC50 ([1]; hop-62) | IC50 [1, 10]
47.2 µM | 89.2 µM | Not Active | 43.1 µM | Not Active | – | – | – | – | – | COC(=O)C[C@H]1[C@]2(C)C3=C(C)[C@H](c4ccoc4)C[C@H]3O[C@@H]2[C@H](O)[C@@H]2[C@]1(C)C(=O)C=C[C@@]2(C)C(=O)NC(C)c1ccccc1 (stereo partly specified) | Not Active | –
63.1 µM | – | Not Active | – | Not Active | Not Active | Not Active | – | – | – | COC(=O)C[C@H]1[C@]2(C)C3=C(C)[C@H](c4ccoc4)C[C@H]3O[C@@H]2[C@H](O)[C@@H]2[C@]1(C)C(=O)C=C[C@@]2(C)C(=O)NCc1cccc(OC)c1 | – | 79.2 µM
– | 93.1 µM | Not Active | 21.5 µM | Not Active | – | – | – | – | Not Active | COC(=O)C[C@H]1[C@]2(C)C3=C(C)[C@H](c4ccoc4)C[C@H]3O[C@@H]2[C@H](O)[C@@H]2[C@]1(C)C(=O)C=C[C@@]2(C)C(=O)NCc1ccc(OC)cc1 | – | 102 µM
8.62 µM | – | Not Active | 8.11 µM | Not Active | Not Active | – | – | – | – | COC(=O)C[C@H]1[C@]2(C)C3=C(C)[C@H](c4ccoc4)C[C@H]3O[C@@H]2[C@H](O)[C@@H]2[C@]1(C)C(=O)C=C[C@@]2(C)C(=O)NC(C(=O)OC)c1ccccc1 (stereo partly specified) | – | 13.5 µM

Reference: ChEMBL document CHEMBL1145323, “Synthesis and biological activity of amide derivatives of nimbolide” (Bioorg Med Chem Lett, 2006)
